According to US7888386B2, “3-(phenoxyphenylmethyl)pyrrolidine compounds” (Theravance, Inc., priority 2008, dated 2011):
Like-named read-outs stand apart in the source and are kept apart here.

Key:
hNET = molecular target: T1, hNET (Homo sapiens, UniProt P23975); experiment: hNET binding assay (Assay 1); conditions: read-out: NET pKi (converted)
T1 construct: expressed in transfected cells; host or cells: HEK-293 derived cell line, stably transfected; membrane preparation
Method: (§1) Membrane radioligand binding assays were used to measure competitive inhibition of labeled ligand (^3H-citalopram or ^3H-nisoxetine or ^3H-WIN35428) binding to membranes prepared from cells expressing the respective human recombinant transporter (hSERT or hNET or hDAT) in order to determine the pKi values of test compounds at the transporters.
(§2) Recombinant human embryonic kidney (HEK-293) derived cell lines stably transfected with hSERT or hNET, respectively, were grown in DMEM medium supplemented with 10% dialyzed FBS (for hSERT) or FBS (for hNET), 100 μg/ml penicillin, 100 μg/ml streptomycin, 2 mM L-glutamine and 250 μg/ml of the aminoglycoside antibiotic G418, in a 5% CO2 humidified incubator at 37° C. When cultures reached 80% confluence, the cells were washed thoroughly in PBS (without Ca^2+ and Mg^2+) and lifted with 5 mM EDTA in PBS. Cells were pelleted by centrifugation, resuspended in lysis buffer (10 mM Tris-HCl, pH 7.5 containing 1 mM EDTA), homogenized, pelleted by centrifugation, then resuspended in 50 mM Tris-HCl, pH 7.5 and 10% sucrose at 4° C. Protein concentration of the membrane suspension was determined using a Bio-Rad Bradford Protein Assay kit. Membranes were snap frozen and stored at −80° C. Chinese hamster ovary membranes expressing hDAT (CHO-DAT) were purchased from PerkinElmer and stored at −80° C.
(§3) Stock solutions (10 mM in DMSO) of test compound were prepared and serial dilutions made using Dilution Buffer (50 mM Tris-HCl, 120 mM NaCl, 5 mM KCl, pH 7.4, 0.1% BSA, 400 μM ascorbic acid).
(§4) Following a 60 minute incubation at 22° C. (or a period sufficient to reach equilibrium), the membranes were harvested by rapid filtration over a 96-well UniFilter GF/B plate, pretreated with 0.3% polyethyleneimine, and washed 6 times with 300 μl wash buffer (50 mM Tris-HCl, 0.9% NaCl, pH 7.5 at 4° C.). Plates were dried overnight at room temperature, ˜45 μl of MicroScint™-20 (Perkin Elmer) added and bound radioactivity quantitated via liquid scintillation spectroscopy. Competitive inhibition curves and saturation isotherms were analyzed using GraphPad Prism Software package (GraphPad Software, Inc., San Diego, Calif.). IC50 values were generated from concentration response curves using the Sigmoidal Dose Response (variable slope) algorithm in Prism GraphPad.

hSERT = molecular target: T2, hSERT (Homo sapiens, UniProt P31645); experiment: hSERT binding assay (Assay 1)
T2 construct: expressed in transfected cells; host or cells: HEK-293 derived cell line, stably transfected; membrane preparation
T2 sequence (P31645 whole entry): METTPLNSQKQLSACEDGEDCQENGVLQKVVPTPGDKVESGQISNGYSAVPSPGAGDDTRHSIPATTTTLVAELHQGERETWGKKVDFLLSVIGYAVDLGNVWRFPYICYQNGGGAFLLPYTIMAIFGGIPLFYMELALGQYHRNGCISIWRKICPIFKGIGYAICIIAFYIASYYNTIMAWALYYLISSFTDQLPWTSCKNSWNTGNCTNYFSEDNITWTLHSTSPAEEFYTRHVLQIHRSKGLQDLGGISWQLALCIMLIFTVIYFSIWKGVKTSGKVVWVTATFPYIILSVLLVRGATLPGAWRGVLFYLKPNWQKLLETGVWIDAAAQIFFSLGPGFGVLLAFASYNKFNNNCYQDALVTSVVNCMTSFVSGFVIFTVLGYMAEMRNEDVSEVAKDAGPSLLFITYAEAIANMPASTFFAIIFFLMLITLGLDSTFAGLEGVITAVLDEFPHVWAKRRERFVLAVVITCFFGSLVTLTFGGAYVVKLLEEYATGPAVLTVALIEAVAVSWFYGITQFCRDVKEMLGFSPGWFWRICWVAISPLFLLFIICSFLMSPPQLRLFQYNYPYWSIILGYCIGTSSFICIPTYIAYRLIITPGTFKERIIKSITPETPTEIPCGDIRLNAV
Method: as §1, §2, §3, §4

[1] = ratio of SERT Ki to NET Ki from binding assays
[2] = ratio of SERT Ki to NET Ki (binding)
[3] = membranes of HEK-293 cells expressing hNET, 1.0 nM 3H-nisoxetine
[4] = ratio of binding Ki at hSERT to Ki at hNET, rounded off to the nearest tenth
[5] = ratio of binding Ki at SERT to Ki at NET, the tables list only compounds with a ratio in the range 0.1-100

T1 sequence (P23975 whole entry): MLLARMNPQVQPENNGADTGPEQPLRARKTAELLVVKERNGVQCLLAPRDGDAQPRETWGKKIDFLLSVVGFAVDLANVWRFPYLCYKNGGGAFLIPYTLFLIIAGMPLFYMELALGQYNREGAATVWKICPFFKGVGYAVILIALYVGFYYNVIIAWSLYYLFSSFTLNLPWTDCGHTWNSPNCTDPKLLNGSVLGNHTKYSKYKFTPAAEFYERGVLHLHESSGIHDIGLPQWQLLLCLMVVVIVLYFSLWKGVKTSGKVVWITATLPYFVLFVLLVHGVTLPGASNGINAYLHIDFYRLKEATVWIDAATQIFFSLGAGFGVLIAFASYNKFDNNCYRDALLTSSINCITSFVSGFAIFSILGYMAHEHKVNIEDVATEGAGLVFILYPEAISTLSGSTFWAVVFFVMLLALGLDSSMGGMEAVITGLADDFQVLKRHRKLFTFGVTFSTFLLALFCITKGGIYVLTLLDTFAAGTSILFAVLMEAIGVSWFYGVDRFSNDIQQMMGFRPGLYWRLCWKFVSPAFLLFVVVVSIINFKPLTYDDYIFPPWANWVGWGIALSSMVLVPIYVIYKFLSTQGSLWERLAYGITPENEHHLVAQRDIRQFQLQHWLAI

| SMILES | Ki (hNET; hNET binding assay) [nM] | SERT Ki/NET Ki (hSERT; [1]) | other results |
| --- | --- | --- | --- |
| Fc1ccc(F)c(OC(c2ccccc2)C2CCNC2)c1 (racemic) [29-1] | 2 | 4 |  |
| Clc1cc(Cl)c(Cl)c(O[C@H](c2ccccc2Cl)[C@@H]2CCNC2)c1 (racemic) [39-4] |  |  | Ki (hNET; hNET binding): 3.98 nM; SERT Ki/NET Ki (hSERT; [2]): 0.1 |
| Cc1cc(F)cc([C@@H](Oc2c(Cl)ccc(C)c2Cl)[C@@H]2CCNC2)c1 (racemic) [41-23] |  |  | Ki (hNET; hNET binding): 1.58 nM; SERT Ki/NET Ki (hSERT; [2]): 0.5 |
| Cc1ccc(Cl)c(O[C@@H](c2cc(F)cc(F)c2)[C@@H]2CCNC2)c1Cl (racemic) [41-25] |  |  | Ki (hNET; hNET binding): 6.31 nM; SERT Ki/NET Ki (hSERT; [2]): 0.2 |
| Cc1ccc(Cl)c(OC(c2cc(F)cc(F)c2)C2CCNC2)c1Cl (racemic) [41-26] |  |  | Ki (hNET; hNET binding): 0.501 nM; SERT Ki/NET Ki (hSERT; [2]): 1.3 |
| Cc1cccc([C@@H](Oc2ccccc2Cl)[C@@H]2CCNC2)c1 (racemic) [Compound 20-6] |  |  | Ki (hNET; [3]): 3.98 nM; SERT Ki/NET Ki (hSERT; [4]): 1.6 |
| COc1ccccc1O[C@H](c1cccc(Cl)c1)[C@@H]1CCNC1 (racemic) [Compound 20-20] |  |  | Ki (hNET; [3]): 2.51 nM; SERT Ki/NET Ki (hSERT; [4]): 13 |
| COc1ccccc1O[C@@H](c1cc(F)cc(F)c1)[C@@H]1CCNC1 (racemic) [Compound 20-31] |  |  | Ki (hNET; [3]): 5.01 nM; SERT Ki/NET Ki (hSERT; [4]): 6.3 |
| COc1ccccc1OC(c1cc(F)cc(F)c1)C1CCNC1 (racemic) [Compound 20-32] |  |  | Ki (hNET; [3]): 0.794 nM; SERT Ki/NET Ki (hSERT; [4]): 10 |
| COc1ccccc1O[C@@H](c1cc(C)cc(F)c1)[C@H]1CCNC1 (racemic) [Compound 20-36] |  |  | Ki (hNET; [3]): 1.26 nM; SERT Ki/NET Ki (hSERT; [4]): 7.9 |
| COc1ccccc1O[C@@H](c1cc(C)cc(F)c1)[C@@H]1CCNC1 (racemic) [Compound 20-37] |  |  | Ki (hNET; [3]): 6.31 nM; SERT Ki/NET Ki (hSERT; [4]): 13 |
| Fc1ccc(Oc2cccc(O[C@H](c3ccccc3)[C@@H]3CCNC3)c2)cc1 (racemic) [Compound 21-15] |  |  | Ki (hNET; [3]): 2 nM; SERT Ki/NET Ki (hSERT; [4]): 1 |
| Cc1c(F)cccc1OC(c1ccccc1)C1CCNC1 (racemic) [Compound 25-17] |  |  | Ki (hNET; [3]): 2.51 nM; SERT Ki/NET Ki (hSERT; [4]): 0.2 |
| CC(=O)c1ccccc1O[C@H](c1ccccc1)[C@@H]1CCNC1 (stereo in doubt) [Ex. 9-3, 1-[2-((R)-phenyl-(S)-pyrrolidin-3-yl-methoxy)phenyl]ethanone] |  |  | Ki (hNET; [3]): 3.16 nM; SERT Ki/NET Ki (hSERT; [4]): 50 |
| Cc1ccc(OC(c2ccccc2)C2CCNC2)c(Cl)c1 (stereo not drawn) [27-10] | 0.631 | 0.8 |  |
| Cc1cc(F)ccc1OC(c1ccccc1)C1CCNC1 (stereo not drawn) [27-13] | 3.16 | 0.3 |  |
| Cc1cc(F)ccc1O[C@@H](c1ccccc1)[C@H]1CCNC1 [27-14] | 2 | 0.3 |  |
| FC(F)(F)c1cc(Cl)ccc1OC(c1ccccc1)C1CCNC1 (stereo not drawn) [27-21] |  | 0.6 |  |
| CCc1cc(F)ccc1OC(c1ccccc1)C1CCNC1 (stereo not drawn) [27-23] | 1 | 0.8 |  |
| COc1cc(F)ccc1OC(c1ccccc1)C1CCNC1 (stereo not drawn) [27-25] | 0.794 | 4.6 |  |
| Cc1ccc(OC(c2ccccc2)C2CCNC2)c([N+](=O)[O-])c1 (stereo not drawn) [27-33] |  | 1.6 |  |
| COC(=O)c1cc(Cl)ccc1OC(c1ccccc1)C1CCNC1 (stereo not drawn) [27-34] | 2.51 | 4 |  |

| SMILES | Ki (hNET; hNET binding assay) [nM] | SERT Ki/NET Ki (hSERT; [1]) | other results |
| --- | --- | --- | --- |
| CCOC(=O)c1cc(Cl)ccc1O[C@@H](c1ccccc1)[C@H]1CCNC1 [27-36] | 3.98 | 0.6 |  |
| N#Cc1cccc([C@H](Oc2ccc(Cl)cc2F)[C@H]2CCNC2)c1 [28-3] | 6.31 | 0.5 |  |
| Fc1cc(F)cc(C(Oc2ccc(Cl)cc2F)C2CCNC2)c1 (stereo not drawn) [28-9] | 3.16 | 0.3 |  |
| Fc1cc(Cl)cc(C(Oc2ccc(Cl)cc2F)C2CCNC2)c1 (stereo not drawn) [28-11] | 2.51 | 0.8 |  |
| Cc1cc(F)cc(C(Oc2ccc(Cl)cc2F)C2CCNC2)c1 (stereo not drawn) [28-13] | 5.01 | 0.5 |  |
| CCc1cc(F)ccc1OC(c1cc(F)cc(F)c1)C1CCNC1 (stereo not drawn) [28-14] | 1.58 | 3.2 |  |
| COc1cc(F)ccc1OC(c1cc(F)cc(F)c1)C1CCNC1 (stereo not drawn) [28-17] | 0.398 | 25 |  |
| COc1cc(Cl)ccc1O[C@@H](c1cc(F)cc(F)c1)[C@H]1CCNC1 [28-19] | 1 | 0.8 |  |
| Fc1ccc(F)c(O[C@@H](c2ccccc2)[C@H]2CCNC2)c1 [29-2] | 1.26 | 32 |  |
| Fc1ccc(F)c(O[C@H](c2ccccc2)[C@@H]2CCNC2)c1 [29-3] | 7.94 | 0.5 |  |
| Fc1ccc(Cl)cc1OC(c1ccccc1)C1CCNC1 (stereo not drawn) [29-4] | 1.26 | 1.6 |  |
| Fc1ccc(Cl)cc1O[C@@H](c1ccccc1)[C@H]1CCNC1 [29-5] | 0.501 | 16 |  |
| Fc1ccc(Cl)cc1O[C@H](c1ccccc1)[C@@H]1CCNC1 [29-6] | 3.98 | 0.3 |  |
| Fc1ccc(Br)cc1OC(c1ccccc1)C1CCNC1 (stereo not drawn) [29-7] | 0.794 | 1.6 |  |
| Cc1ccc(F)c(OC(c2ccccc2)C2CCNC2)c1 (stereo not drawn) [29-8] | 1.58 | 3.2 |  |
| Cc1ccc(F)c(O[C@@H](c2ccccc2)[C@H]2CCNC2)c1 [29-9] | 1.26 | 10 |  |
| Fc1ccc(Cl)c(O[C@H](c2ccccc2)[C@@H]2CCNC2)c1 [29-13] |  | 0.2 |  |
| Cc1ccc(Cl)cc1OC(c1ccccc1)C1CCNC1 (stereo not drawn) [29-18] |  | 0.1 |  |
| COc1ccc(C)cc1OC(c1ccccc1)C1CCNC1 (stereo not drawn) [29-27] |  | 2 |  |
| Cc1cccc(Cl)c1OC(c1ccccc1)C1CCNC1 (stereo not drawn) [31-13] |  | 0.6 |  |
| Fc1cc(F)cc(C(Oc2cc(Cl)ccc2F)C2CCNC2)c1 (stereo not drawn) [32-2] |  | 2.5 |  |
| COc1ccc(F)c(OC(c2ccccc2Cl)C2CCNC2)c1 (stereo not drawn) [32-3] |  | 4 |  |

| SMILES | Ki (hNET; hNET binding assay) [nM] | SERT Ki/NET Ki (hSERT; [1]) | other results |
| --- | --- | --- | --- |
| Clc1ccc(Cl)c(OC(c2ccccc2Cl)C2CCNC2)c1 (stereo not drawn) [32-7] |  | 0.6 |  |
| Fc1ccc(C(Oc2cc(Cl)ccc2Cl)C2CCNC2)cc1 (stereo not drawn) [32-11] |  | 4 |  |
| COc1cccc(C(Oc2cc(Cl)ccc2Cl)C2CCNC2)c1 (stereo not drawn) [32-13] |  | 0.3 |  |
| N#Cc1cccc(C(Oc2cc(Cl)ccc2Cl)C2CCNC2)c1 (stereo not drawn) [32-15] |  | 13 |  |
| NC(=O)c1cccc([C@H](Oc2cc(Cl)ccc2Cl)[C@H]2CCNC2)c1 [32-17] |  | 2 |  |
| Fc1cc(F)cc(C(Oc2cc(Cl)ccc2Cl)C2CCNC2)c1 (stereo not drawn) [32-24] |  | 7.9 |  |
| Fc1cc(F)cc([C@H](Oc2cc(Cl)ccc2Cl)[C@H]2CCNC2)c1 [32-25] |  | 25 |  |
| Cc1ccc(OC(c2ccccc2)C2CCNC2)cc1F (stereo not drawn) [33-3] |  | 0.3 |  |
| Fc1cc(Cl)cc(OC(c2ccccc2)C2CCNC2)c1 (stereo not drawn) [34-4] |  | 0.3 |  |
| Fc1cc(F)cc(C(Oc2cc(Cl)cc(Cl)c2)C2CCNC2)c1 (stereo not drawn) [35-16] |  |  | SERT Ki/NET Ki (hSERT; [2]): 0.5 |
| Cc1ccc(Cl)c(OC(c2ccccc2)C2CCNC2)c1Cl (stereo not drawn) [40-31] |  |  | SERT Ki/NET Ki (hSERT; [2]): 0.6 |
| Cc1ccc(Cl)c(OC(c2ccccc2)C2CCNC2)c1Cl (stereo not drawn) [40-32] |  |  | SERT Ki/NET Ki (hSERT; [2]): 1 |
| Cc1ccc(Cl)c(OC(c2ccccc2)C2CCNC2)c1Cl (stereo not drawn) [40-33] |  |  | SERT Ki/NET Ki (hSERT; [2]): 3.2 |
| Cc1ccc(Cl)c(OC(c2ccccc2)C2CCNC2)c1Cl (stereo not drawn) [40-34] |  |  | SERT Ki/NET Ki (hSERT; [2]): 0.1 |
| Fc1cc(F)cc(C(Oc2c(Cl)ccc(Cl)c2Cl)C2CCNC2)c1 (stereo not drawn) [41-13] |  |  | SERT Ki/NET Ki (hSERT; [2]): 2 |
| Cc1cc(F)cc(C(Oc2c(Cl)ccc(C)c2Cl)C2CCNC2)c1 (stereo not drawn) [41-22] |  |  | SERT Ki/NET Ki (hSERT; [2]): 0.3 |
| NC(=O)c1cccc(C(Oc2c(F)ccc(F)c2Cl)C2CCNC2)c1 (stereo not drawn) [41-38] |  |  | SERT Ki/NET Ki (hSERT; [2]): 0.1 |
| N#Cc1cccc([C@H](Oc2c(F)cc(F)cc2F)[C@H]2CCNC2)c1 [45-3] |  |  | SERT Ki/NET Ki (hSERT; [5]): 3.2 |
| Fc1c(F)c(F)c(O[C@H](c2ccccc2)[C@@H]2CCNC2)c(F)c1F [49-2] |  |  | SERT Ki/NET Ki (hSERT; [5]): 0.2 |
| c1ccc(COc2ccccc2OC(c2ccccc2)C2CCNC2)cc1 (stereo not drawn) [Compound 19-23] |  |  | SERT Ki/NET Ki (hSERT; [4]): 3.2 |
| Fc1c(Cl)cccc1OC(c1ccccc1)C1CCNC1 (stereo not drawn) [Compound 25-4] |  |  | SERT Ki/NET Ki (hSERT; [4]): 5 |
| c1ccc(OC(c2ccccc2)C2CCNC2)cc1 (stereo not drawn) [Ex. 17-1, 3-(Phenoxyphenylmethyl)pyrrolidine] |  |  | Ki (hNET; [3]): 6.31 nM |
